Test results published in patent US11040082B2, “Compositions and methods for treating colorectal cancer” (Georgia State University Research Foundation, Inc., priority 2014, dated 2021).

Tests used:
tumor growth = conditions: several studies; cited from earlier work
colon adenocarcinoma = conditions: cited from earlier work
[1] = system: myeloid leukemia C1498 cells; conditions: in vivo; cited from earlier work
[2] = system: PepT1 expression and colitis in IL-10-/- mice; conditions: compared to vehicle-treated; cited from earlier work
[3] = system: AOM/DSS-induced colon tumorigenesis in PepT1-KO mice; assay: AOM/DSS-induced colitis-associated cancer model, PepT1-KO mice, with or without KPV; format: in vivo, mouse; conditions: AOM 15 mg/kg, 3% DSS, + KPV vs AOM/DSS only
Protocol: (§1) Colonic tumor model: Colon cancer was induced as previously described with some modifications (Greten et al., Cell 118:285-96, 2004). Mice were intraperitoneally injected with AOM (Sigma-Aldrich, St. Louis, Mo.) diluted in PBS (10 mg/kg) and maintained on a regular diet and water for 5 days. The mice were then subjected to two cycles of DSS treatment (MP Biomedicals, Solon, Ohio, USA), with each cycle consisting of 2.5% DSS for 7 days followed by a 14-day recovery period with regular water. Mice were then sacrificed and their colons isolated for further experimentation. Colonic tumors were counted and measured using a dissecting microscope. The total sum of the area of each colon covered by tumor tissue was expressed as the tumor burden index.
(§2) In experiments designed to test the efficacy of KPV (Biopeptide Co. Inc., San Diego, Calif.), the above protocol was slightly modified. Five days after AOM injections (10 mg/kg to WT mice or 15 mg/kg to PepT1-KO mice), the WT and PepT1-KO mice were given 3% DSS with or without KPV for seven days. Following the 7-day treatment, the mice were given normal drinking water for 14 days, then 2.5% DSS (WT) or 3% DSS (PepT1-KO mice) with or without KPV for seven days. Following the 7-day treatment, the mice were given normal drinking water for 14 days. The KPV-treated group received 100 μM KPV in their drinking water along with the DSS during both DSS cycles.
(§3) Therefore, we hypothesized that KPV may help prevent colon tumorigenesis in the AOM/DSS-induced CAC model. To test this hypothesis, WT mice were treated with AOM/DSS or AOM/DSS+KPV (during the DSS cycles). […] In order to investigate any putative protective effect of KPV administration in pepT1-KO mice, the colitis-associated cancer protocol was slightly modified based on the relatively low penetrance of the disease in pepT1-deficient animals (FIG. 3). AOM concentration was increased to 15 mg/kg and DSS was increased to 3% in order to favor tumor development. […] Upregulation of colonic PepT1 may lead to increased interactions between bacterial peptides and intracellular innate immune receptors, including NOD receptors, thus triggering downstream activation of proinflammatory signaling pathways (Dalmasso et. al., Gastroenterology 141:1334-45, 2011; Laroui et al., J. Biol. Chem. 286:31003-13, 2011). Furthermore, previous studies have shown that bacteria are required for the initiation of colonic inflammation and subsequent dysplasia and tumorigenesis (Itzkowitz and Yio, Am. J. Physiol. Gastrointest. Liver Physiol. 287:G7-17, 2004). Future studies are warranted to assess the role of PepT1-bacterial interactions in these processes, and whether such interactions contribute to the progression of CAC.

[4] = system: Caco2-BBE and Jurkat cells; conditions: stimulation with pro-inflammatory cytokines, co-treated with KPV; cited from earlier work
[5] = system: AOM/DSS-induced colon tumorigenesis; assay: AOM/DSS-induced colitis-associated cancer (CAC) model, WT mice, with or without KPV; format: in vivo, mouse
Protocol: as §1, §2
H&E Staining of Colonic Tissue: Mouse colons were fixed in 10%-buffered formalin for 24 hours at room temperature and then embedded in paraffin. Tissues were sectioned at 5-μm thickness and stained with hematoxylin & eosin (H&E) using standard protocols. Images were acquired using an Olympus microscope equipped with a DP-23 digital camera.
Immunohistochemistry: Mouse colonic tissues were fixed in formalin and paraffin-embedded. For Ki67, β-catenin and PepT1 staining, sections were deparaffinized. Slides were incubated in sodium citrate buffer (pH 6.0) and cooked in a pressure cooker for 10 minutes for antigen retrieval. Sections were then blocked with 5% goat serum in TBS followed by incubation for one hour with anti-Ki67 (1:100, Vector Laboratories, Burlingame, Calif.), anti-β-catenin (1:1000, Cell Signaling, Danvers, Mass.) or anti-mPepT1 at 37° C. After washing with TBS, sections were treated with appropriate biotinylated secondary antibodies for 30 minutes at 37° C., and color development was performed using the Vectastain ABC kit (Vector Laboratories). Sections were then counterstained with hematoxylin, dehydrated, and then coverslipped. Images were acquired using an Olympus microscope equipped with DP-23 Digital camera. Ki67-positive cells were counted per crypt.
as §3, with “Future studies are warranted to assess the role of PepT1-bacterial interactions in these processes, and whether such interactions contribute to the progression of CAC.” left out

PepT1 = molecular target: T1, PepT1 (Homo sapiens, UniProt P46059); conditions: in vitro, Caco-2/BBE cells; cited from earlier work
T1 construct: endogenous in cells; host or cells: Caco-2/BBE cells
T1 sequence (P46059 1-708): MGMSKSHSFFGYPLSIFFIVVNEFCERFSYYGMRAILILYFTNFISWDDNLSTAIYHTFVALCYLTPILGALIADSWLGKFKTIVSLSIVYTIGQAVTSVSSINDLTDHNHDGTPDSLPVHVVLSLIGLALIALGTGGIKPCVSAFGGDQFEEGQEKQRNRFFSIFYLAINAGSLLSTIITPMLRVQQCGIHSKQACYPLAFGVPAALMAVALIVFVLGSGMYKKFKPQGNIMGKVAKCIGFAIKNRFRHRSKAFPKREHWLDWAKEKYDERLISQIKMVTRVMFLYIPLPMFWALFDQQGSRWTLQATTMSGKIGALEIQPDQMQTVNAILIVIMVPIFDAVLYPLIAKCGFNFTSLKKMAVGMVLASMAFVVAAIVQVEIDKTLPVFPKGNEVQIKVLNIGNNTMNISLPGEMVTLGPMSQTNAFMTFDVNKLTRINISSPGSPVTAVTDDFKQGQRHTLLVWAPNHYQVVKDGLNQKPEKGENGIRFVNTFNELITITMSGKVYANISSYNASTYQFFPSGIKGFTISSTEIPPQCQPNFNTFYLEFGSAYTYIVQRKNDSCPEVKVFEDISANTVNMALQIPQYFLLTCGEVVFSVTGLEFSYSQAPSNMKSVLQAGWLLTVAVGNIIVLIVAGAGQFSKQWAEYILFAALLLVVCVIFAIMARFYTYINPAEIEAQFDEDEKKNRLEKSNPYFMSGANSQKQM

DSS-induced colitis = conditions: previous studies; cited from earlier work
[6] = system: tumorigenesis in IL-10-deficient mice; conditions: even after colitis had developed; cited from earlier work
[7] = AOM/DSS + 100 μM KPV in drinking water during both DSS cycles vs AOM/DSS only
[8] = AOM/DSS + 100 μM KPV vs AOM/DSS only

CC(C)C[C@H](NC(=O)[C@@H](O)[C@H](N)Cc1ccccc1)C(=O)O [bestatin]
cell proliferation (tumor growth): decreases cell proliferation
tumor growth (tumor growth): ameliorates tumor growth
growth of colon adenocarcinoma (colon adenocarcinoma): inhibits the growth of colon adenocarcinoma
growth of myeloid leukemia C1498 cells [1]: decreases the growth

Lactobacillus plantarum
PepT1 expression and activity [2]: reduced PepT1 expression and activity
colitis [2]: attenuated colitis

Lys-Pro-Val [KPV]
protection from tumorigenesis [3]: not protected from tumorigenesis
tumor burden [3]: remained unchanged
tumor numbers [3]: remained unchanged
tumor sizes [3]: remained unchanged
NF-κB activation [4]: attenuated NF-κB activation
pro-inflammatory cytokine production [4]: decreased pro-inflammatory cytokine production
colon tumorigenesis: overall colonic tumor burden [5, 7]: drastic decreases
colon tumorigenesis: tumor numbers [5, 7]: drastic decreases
colon tumorigenesis: tumor sizes [5, 7]: drastic decreases
aberrant crypt foci (H&E-stained colonic sections) [5, 8]: fewer aberrant crypt foci
body weight loss during DSS treatment [5, 8]: lost similar amounts of weight
cellular infiltration (H&E-stained colonic sections) [5, 8]: decreased cellular infiltration
epithelial cell proliferation (Ki67+ cells/crypt) [5, 8]: less epithelial cell proliferation
inflammation (H&E-stained colonic sections) [5, 8]: decreased inflammation
transport via PepT1 (PepT1): transported via PepT1
inflammation and DSS-induced colitis (DSS-induced colitis): decreases inflammation and attenuates DSS-induced colitis

B1: IL-10: exogenous anti-inflammatory cytokine IL-10 administered to IL-10-deficient mice (protein, UniProt P18893 19-178, looked up)
Interleukin-10: SRGQYSREDNNCTHFPVGQSHMLLELRTAFSQVKTFFQTKDQLDNILLTDSLMQDFKGYLGCQALSEMIQFYLVEVMPQAEKHGPEIKEHLNSLGEKLKTLRMRLRRCHRFLPCENKSKAVEQVKSDFNKLQDQGVYKAMNEFDIFINCIEAYMMIKMKS
tumorigenesis [6]: tumorigenesis was decreased
